This passage reports IC50, ED50 and LD50 results from patent US4668681A, “2-(4-Phenylpiperazinylethyl) anilines” (Societe Cortial, S.A., priority 1981, dated 1987).

Data set [1] relates to isolated ileum of the guinea pig. The data set can be described thus: Antihistaminic activity in vitro: inhibition of histamine-induced contractions of isolated ileum. It is filed as cell-based. The note with it: Cavia porcellus, histamine 1×10^-8 g/l, bathing method, read-out: IC50 (concentration producing 50% inhibition of contractions induced by histamine). As to the method: The antihistaminic activity was measured in vitro by measuring the concentration which produced 50% inhibition of the contractions induced by histamine (1×10^-8 g/l) in the isolated ileum of the guinea pig (IC50).

For a further data set, the system named is male Sprague-Dawley rats. Nature of the data set: Antiallergic activity: passive cutaneous anaphylaxis test. It is filed as in vivo. The note with it: oral, suspension with Tween 80, ten minutes before the releasing injection, rat; read-out: ED50 (percentage decrease of the amount of Evans blue diffused in the papule). On the procedure:
The antiallergic activity was determined by the passive cutaneous anaphylaxis test in the following manner. A quantity of 0.1 ml of serum containing IgE was administered intradermally to male Sprague-Dawley rats. The serum was prepared by sensitizing Sprague-Dawley rats by an intraperitoneal injection of ovalbumin and a suspension of Bordetella pertussis followed after 20 days by a second injection of ovalbumin. 24 Hours after administration of the serum, 0.5 ml of a solution containing 8.25 mg/kg of ovalbumin and 26.4 mg/kg of Evans blue in a pH 7.05 buffer was administered intravenously. After 30 minutes the animals were sacrificed. Each papule was dissected, weighed and incubated for four days at 37° C. in 15 g of formamide. The amount of Evans blue contained in each papule was determined by measuring the optical density of the mixture. The product to be tested was administered orally in a homogenous suspension in the presence of Tween 80, ten minutes before the releasing injection. Its activity is evaluated by the percentage decrease of the amount of Evans blue which has diffused in the papule.

Data set [2] is described as follows: Lethality (LD50) by oral administration in the Swiss mouse. The note with it: in vivo, 20% solution in Tween, 14 days observation. As to the method:
The lethality produced by the compounds of this invention was measured in the Swiss mouse free from specific pathogenic organisms.

In brackets after ≈: the same amount, converted by molar mass.

Broadly, the ED50 is the dose at which the effect has come halfway, by size or by number of responders. Broadly, the LD50 is the dose expected to kill half of the subjects tested. A low value points to a more toxic substance. On to `Nc1ccccc1CCN1CCN(c2ccccc2)CC1` [Example 1, 2-(4-phenylpiperazinylethyl)aniline], for which the IC50 in data set [1] came to 6.3 µg/mL (≈ 22.4 µM). Moreover, the ED50 in the data set on male Sprague-Dawley rats was 5.11 mg/kg. In data set [2], this compound showed an LD50 at 336 h of 1180 mg/kg.
